The values below come from patent US4684620A, “Cyclic polypeptides having mu-receptor specificity” (Gibson-Stephens Neuropharmaceuticals, Inc., priority 1984, dated 1987).

Positions of bridges follow the written chain, without caps; N, C: chain ends. Non-standard residues stand in square brackets, D forms with d. Residues, ends and D or L forms follow the SMILES beside them. Asu = N[C@@H](CCCCCC(=O)O)C(=O)O; dPhg = N[C@@H](C(=O)O)c1ccccc1; Pen = CC(C)(S)[C@H](N)C(=O)O

One data set concerns the target T1, δ-opiate receptors (Rattus norvegicus, UniProt P33533).
T1 construct: Adult Sprague-Dawly rats (150-200g) were killed by decapitation; The brain was rapidly removed and homogenized; from tissue; host or cells: rat brain membranes (Sprague-Dawley)
Description: [3H]DADLE receptor binding to rat brain homogenates. Conditions: for IC50: 1 nM [3H]DADLE. The protocol:
(§1) Adult Sprague-Dawly rats (150-200g) were killed by decapitation. The brain was rapidly removed and homogenized (10% wt/vol in 0.32 M sucrose in a glass homogenizer with a motor driven teflon pestle. The homogenate was then centrifuged at 43,000×g for 10 min and the resulting pellet was resuspended in 50 mM Trisma buffer (pH 7.4 at 25° C.) containing 5 mM MgCl2, 2 mg/ml BSA and 20 mg/ml of bacitracin, using a Polytron homogenizer (15 sec, setting 5). The centrifugation and resuspension step was repeated once.
(§2) For all the inhibition studies, rat brain plasma membranes (100 μl ) were incubated at 25° C. for 60 min in a total of 1.0 ml of 50 mM Trisma buffer containing 220,000 dpm ^125 I-CGP 23,996. See Czernik, A. J. and Petrack, G., J. Biol. Chem. 258,5525-5530 (1983) which is herein specifically incorporated by reference. 1 nM [^3 H-]naloxone (42.3 Ci/mmol, New England Nuclear) or 1 nM [^3 H]DADLE ([D-Ala^2, D-Ala^5 ]enkephalin), [^3 H-3'5'-Tyr]DADLE, 43 Ci/mmol, New England Nuclear, and at least nine concentrations of our synthetic analogues. All incubations were done in duplicate and each compound was tested at least five times. The concentration of test compounds was determined by quantitative amino acid analysis or from published molar extinction coefficients. […] The data were analyzed using nonlinear least squares regression analysis.

A further data set deals with T2, mu opioid receptor (Rattus norvegicus, UniProt P33535).
T2 construct: Adult Sprague-Dawly rats (150-200g) were killed by decapitation; The brain was rapidly removed and homogenized; from tissue; host or cells: rat brain membranes (Sprague-Dawley)
T2 sequence (P33535 whole entry): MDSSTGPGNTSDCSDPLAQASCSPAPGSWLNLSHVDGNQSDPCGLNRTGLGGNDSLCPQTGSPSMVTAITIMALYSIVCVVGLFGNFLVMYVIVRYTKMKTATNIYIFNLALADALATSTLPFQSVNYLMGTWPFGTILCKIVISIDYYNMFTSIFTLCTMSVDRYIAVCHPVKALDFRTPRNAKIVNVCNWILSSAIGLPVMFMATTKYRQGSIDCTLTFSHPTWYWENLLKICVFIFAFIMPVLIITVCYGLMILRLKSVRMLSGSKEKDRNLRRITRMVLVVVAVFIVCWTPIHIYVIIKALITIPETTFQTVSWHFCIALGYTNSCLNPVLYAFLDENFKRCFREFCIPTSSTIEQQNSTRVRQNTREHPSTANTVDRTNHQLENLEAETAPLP
Description: [3H]naloxone receptor binding to rat brain homogenates. Conditions: for IC50: 1 nM [3H]naloxone. The procedure: as §1, §2

A short description of data set [1]: Partition coefficient, octanol-water. Conditions: read-out: Partition Coefficient, Octanol-Water, log P. It is filed as physicochemical.
Data set [2] addresses T3, delta-type opiate receptors (Mus musculus, UniProt P32300).
T3 construct: from tissue; host or cells: mouse vas deferens
Description: Mouse vas deferens (MVD) test, electrically stimulated contractions, antagonism of DPDPE. The protocol: The compounds of the present invention were tested for their ability to inhibit electrically stimulated muscle contractions in the guinea pig ileum (GPI) assay and in the mouse vas deferens (MVD) assay.
The mouse vasa deferentia tests were conducted as follows: vas deferens of male mice were placed in a 60 ml tissue bath and attached to a force transducer. Contractions were induced by electrical stimulation. […] Percent inhibition was calculated.

T3 sequence (P32300 whole entry): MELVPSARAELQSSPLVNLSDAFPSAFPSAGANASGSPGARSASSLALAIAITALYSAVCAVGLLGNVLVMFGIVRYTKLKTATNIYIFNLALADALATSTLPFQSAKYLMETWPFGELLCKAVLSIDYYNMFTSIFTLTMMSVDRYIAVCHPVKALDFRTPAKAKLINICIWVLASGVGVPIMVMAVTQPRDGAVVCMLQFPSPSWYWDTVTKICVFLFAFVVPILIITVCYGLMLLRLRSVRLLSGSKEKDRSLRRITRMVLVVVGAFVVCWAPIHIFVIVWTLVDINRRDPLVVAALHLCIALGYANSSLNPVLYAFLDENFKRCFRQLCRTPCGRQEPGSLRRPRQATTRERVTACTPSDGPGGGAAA
T1 sequence (P33533 whole entry): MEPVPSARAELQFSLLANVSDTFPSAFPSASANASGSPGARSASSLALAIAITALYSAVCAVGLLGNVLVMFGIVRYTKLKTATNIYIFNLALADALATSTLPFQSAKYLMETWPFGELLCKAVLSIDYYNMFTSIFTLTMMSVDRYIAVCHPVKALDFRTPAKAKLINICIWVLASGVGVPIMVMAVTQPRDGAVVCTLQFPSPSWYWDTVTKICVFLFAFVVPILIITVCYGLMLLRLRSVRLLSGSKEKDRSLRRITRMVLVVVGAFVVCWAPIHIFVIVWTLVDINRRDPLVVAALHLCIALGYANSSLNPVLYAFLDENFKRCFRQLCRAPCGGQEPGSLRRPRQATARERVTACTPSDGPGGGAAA

By IC50 is commonly meant the concentration at which inhibition is half-maximal. The low end stands for higher potency, the high end for lower potency. For the compound `C[C@@H](O)[C@H](NC(=O)[C@@H]1CSSC(C)(C)[C@H](NC(=O)[C@H](N)Cc2ccccc2)C(=O)N[C@@H](Cc2ccc(O)cc2)C(=O)N[C@H](Cc2c[nH]c3ccccc23)C(=O)N[C@@H](CCCCN)C(=O)N[C@@H]([C@@H](C)O)C(=O)N1)C(=O)O`, the IC50 at δ-opiate receptors amounted to 2.56 µM; on mu opioid receptor, 0.471 µM. As for `CC(=O)N[C@@H](Cc1ccccc1)C(=O)N[C@H](Cc1c[nH]c2ccccc12)C(=O)N[C@@H](CCCCN)C(=O)N[C@H](C(=O)O)[C@@H](C)O` [AcPhe --D-TrpLysThr, reference compound] (Ac-F[dW]KT-OH), the IC50 was 5.84 µM at δ-opiate receptors and 51.5 µM on mu opioid receptor.

As to `C[C@@H](O)[C@@H]1NC(=O)[C@H](Cc2ccc(O)cc2)NC(=O)[C@H]([C@@H](C)O)NC(=O)[C@H](CCCCN)NC(=O)[C@H](Cc2c[nH]c3ccccc23)NC(=O)[C@H](Cc2ccccc2)NC(=O)[C@H](Cc2ccccc2)NC(=O)[C@H](CC(N)=O)NC(=O)[C@H](CCCCN)NC(=O)CCCCC[C@@H](C(=O)O)NC(=O)[C@H](CO)NC1=O` [CGP 23,996, des-Ala^1,Gly^2-desamino-Cys3-[Tyr^11]-dicarba^3,14-somatostatin, reference compound] (KNFFWKTYTS[Asu]-OH; lactam N-11), the IC50 on δ-opiate receptors and on mu opioid receptor was greater than 100 µM in each case. `C[C@@H](O)[C@H](NC(=O)[C@H]1NC(=O)[C@H]([C@@H](C)O)NC(=O)[C@H](CCCCN)NC(=O)[C@@H](Cc2c[nH]c3ccccc23)NC(=O)[C@H](Cc2ccc(O)cc2)NC(=O)[C@@H](NC(=O)[C@H](N)Cc2ccccc2)CSSC1(C)C)C(=O)O` [Example 1]: the logP in data set [1] was 0.7. As for `C[C@@H](O)[C@H](NC(=O)[C@H]1NC(=O)[C@H]([C@@H](C)O)NC(=O)[C@H](CCCCN)NC(=O)[C@@H](Cc2c[nH]c3ccccc23)NC(=O)[C@H](Cc2ccc(O)cc2)NC(=O)[C@@H](NC(=O)[C@H](N)Cc2ccccc2)CSSC1(C)C)C(N)=O` [Example VI], the logP in data set [1] is -0.2.

On to `C[C@@H](O)[C@H](NC(=O)[C@H]1NC(=O)[C@H]([C@@H](C)O)NC(=O)[C@H](CCCCN)NC(=O)[C@@H](Cc2c[nH]c3ccccc23)NC(=O)[C@H](Cc2ccccc2)NC(=O)[C@@H](NC(=O)[C@H](N)Cc2ccccc2)C(C)(C)SSC1(C)C)C(=O)O` [Example V], for which the logP in data set [1] stood at 0. As for `C[C@@H](O)[C@H](NC(=O)[C@H]1NC(=O)[C@H]([C@@H](C)O)NC(=O)[C@H](CCCCN)NC(=O)[C@@H](Cc2c[nH]c3ccccc23)NC(=O)[C@H](Cc2ccccc2)NC(=O)[C@@H](NC(=O)[C@H](N)Cc2ccccc2)CSSC1(C)C)C(=O)O` [III], the logP in data set [1] was -0.71.

As for `C[C@@H](O)[C@H](NC(=O)[C@@H]1CSSC[C@H](NC(=O)[C@H](N)Cc2ccccc2)C(=O)N[C@@H](Cc2ccccc2)C(=O)N[C@H](Cc2c[nH]c3ccccc23)C(=O)N[C@@H](CCCCN)C(=O)N[C@@H]([C@@H](C)O)C(=O)N1)C(=O)O` [II], the logP in data set [1] is -0.77.

Regarding `C[C@@H](O)[C@H](NC(=O)[C@@H]1CSSC(C)(C)[C@H](NC(=O)[C@H](N)Cc2ccccc2)C(=O)N[C@@H](Cc2ccccc2)C(=O)N[C@H](Cc2c[nH]c3ccccc23)C(=O)N[C@@H](CCCCN)C(=O)N[C@@H]([C@@H](C)O)C(=O)N1)C(=O)O` [IV], the logP in data set [1] was -0.22. For the compound `C[C@H](N)C(=O)NCC(=O)N[C@H]1CSSC[C@@H](C(=O)O)NC(=O)[C@H](CO)NC(=O)[C@H]([C@@H](C)O)NC(=O)[C@H](Cc2ccccc2)NC(=O)[C@H]([C@@H](C)O)NC(=O)[C@H](CCCCN)NC(=O)[C@H](Cc2c[nH]c3ccccc23)NC(=O)[C@H](Cc2ccccc2)NC(=O)[C@H](Cc2ccccc2)NC(=O)[C@H](CC(N)=O)NC(=O)[C@H](CCCCN)NC1=O` [SOMATOSTATIN, somatostatin, reference compound], the “[3H]DADLE nH” value at δ-opiate receptors is recorded as 1.09. At mu opioid receptor, the “[3H]Naloxone nH” value was found to be 1.02.

Turning to `C[C@@H](O)[C@H](NC(=O)[C@@H]1CSSC(C)(C)[C@H](NC(=O)[C@H](N)c2ccccc2)C(=O)N[C@@H](Cc2ccccc2)C(=O)N[C@H](Cc2c[nH]c3ccccc23)C(=O)N[C@@H](CCCCN)C(=O)N[C@@H]([C@@H](C)O)C(=O)N1)C(=O)O` [VIII] (H-[dPhg][Pen]F[dW]KTCT-OH; disulfide 2-7), the logP in data set [1] is -0.57. As to `C[C@@H](O)[C@H](NC(=O)[C@H]1NC(=O)[C@H]([C@@H](C)O)NC(=O)[C@H](CCCCN)NC(=O)[C@@H](Cc2c[nH]c3ccccc23)NC(=O)[C@H](Cc2ccccc2)NC(=O)[C@@H](NC(=O)[C@H](N)Cc2ccccc2)CSSC1(C)C)C(N)=O` [VII], the logP in data set [1] was determined as 0.36. `C[C@@H](O)[C@H](NC(=O)[C@H]1NC(=O)[C@H]([C@@H](C)O)NC(=O)[C@H](CCCCN)NC(=O)[C@@H](Cc2c[nH]c3ccccc23)NC(=O)[C@H](Cc2ccc(O)cc2)NC(=O)[C@@H](NC(=O)[C@H](N)Cc2ccccc2)CSSC1(C)C)C(N)=O` [drawing 24]: the IC50 on δ-opiate receptors worked out at 0.952 µM; at mu opioid receptor, 0.0035 µM. Turning to `C[C@@H](O)[C@H](NC(=O)[C@H]1NC(=O)[C@H]([C@@H](C)O)NC(=O)[C@H](CCCCN)NC(=O)[C@@H](Cc2c[nH]c3ccccc23)NC(=O)[C@H](Cc2ccccc2)NC(=O)[C@@H](NC(=O)[C@H](N)Cc2ccccc2)CSSC1(C)C)C(N)=O` [drawing 25], the concentration for half-maximal inhibition (IC50) worked out at 1.1 µM at δ-opiate receptors and 0.0099 µM at mu opioid receptor. On the same counts, the results for `C[C@@H](O)[C@H](NC(=O)[C@H]1NC(=O)[C@H]([C@@H](C)O)NC(=O)[C@H](CCCCN)NC(=O)[C@@H](Cc2c[nH]c3ccccc23)NC(=O)[C@H](Cc2ccc(O)cc2)NC(=O)[C@@H](NC(=O)[C@H](N)Cc2ccccc2)CSSC1(C)C)C(=O)O` [drawing 26] are 3.76 µM and 0.293 µM.

For `C[C@@H](O)[C@H](NC(=O)[C@H]1NC(=O)[C@H]([C@@H](C)O)NC(=O)[C@H](CCCCN)NC(=O)[C@@H](Cc2c[nH]c3ccccc23)NC(=O)[C@H](Cc2ccccc2)NC(=O)[C@@H](NC(=O)[C@H](N)Cc2ccccc2)CSSC1(C)C)C(=O)O` [drawing 27], the IC50 at δ-opiate receptors stood at 5.42 µM; at mu opioid receptor it was 0.926 µM.

For the compound `C[C@@H](O)[C@H](NC(=O)[C@@H]1CSSC(C)(C)[C@H](NC(=O)[C@H](N)c2ccccc2)C(=O)N[C@@H](Cc2ccccc2)C(=O)N[C@H](Cc2c[nH]c3ccccc23)C(=O)N[C@@H](CCCCN)C(=O)N[C@@H]([C@@H](C)O)C(=O)N1)C(=O)O` [drawing 28] (H-[dPhg][Pen]F[dW]KTCT-OH; disulfide 2-7), the IC50 at δ-opiate receptors worked out at 13.5 µM; on mu opioid receptor, 2.5 µM. `C[C@@H](O)[C@H](NC(=O)[C@H]1NC(=O)[C@H]([C@@H](C)O)NC(=O)[C@H](CCCCN)NC(=O)[C@@H](Cc2c[nH]c3ccccc23)NC(=O)[C@H](Cc2ccccc2)NC(=O)[C@@H](NC(=O)[C@H](N)Cc2ccccc2)C(C)(C)SSC1(C)C)C(=O)O` [drawing 30]: the concentration for half-maximal inhibition (IC50) on δ-opiate receptors is 11.1 µM; at mu opioid receptor it was 8.27 µM. Take `C[C@@H](O)[C@H](NC(=O)[C@@H]1CSSC[C@H](NC(=O)[C@H](N)Cc2ccccc2)C(=O)N[C@@H](Cc2ccccc2)C(=O)N[C@H](Cc2c[nH]c3ccccc23)C(=O)N[C@@H](CCCCN)C(=O)N[C@@H]([C@@H](C)O)C(=O)N1)C(=O)O` [drawing 31]: the IC50 at δ-opiate receptors was 3.14 µM; on mu opioid receptor it was 2.58 µM. As for `C[C@@H](O)[C@H](NC(=O)[C@@H]1CSSC(C)(C)[C@H](NC(=O)[C@H](N)Cc2ccccc2)C(=O)N[C@@H](Cc2ccccc2)C(=O)N[C@H](Cc2c[nH]c3ccccc23)C(=O)N[C@@H](CCCCN)C(=O)N[C@@H]([C@@H](C)O)C(=O)N1)C(=O)O` [drawing 32], the IC50 on δ-opiate receptors was determined as 38.1 µM; at mu opioid receptor it was 61 µM. On to `C[C@@H](O)[C@H](NC(=O)[C@H]1NC(=O)[C@H]([C@@H](C)O)NC(=O)[C@H](CCCCN)NC(=O)[C@@H](Cc2c[nH]c3ccccc23)NC(=O)[C@H](Cc2ccc(O)cc2)NC(=O)[C@@H](NC(=O)[C@H](N)Cc2ccccc2)CSSC1(C)C)C(N)=O` [drawing 41], for which the “Percent inhibition of contractions” value in data set [2] (DPDPE 1 nM plus 1000 nM analog) is reported as 13 ± 3%; in data set [2] (DPDPE 3 nM plus 1000 nM analog), 28 ± 4%; in data set [2] (DPDPE 10 nM plus 1000 nM analog), 48 ± 8%; in data set [2] (DPDPE 30 nM plus 1000 nM analog), 73 ± 9%; in data set [2] (DPDPE 100 nM plus 1000 nM analog), 91 ± 5%; in data set [2] (DPDPE 300 nM plus 1000 nM analog), 97 ± 1%.
